From patent US20160287589A1, “SUBSTITUTED-IMIDAZOPYRIDAZINES” (BAYER PHARMA AKTIENGESELLSCHAFT, priority 2013, published 2016)

What follows are compounds tested against T1, MKNK1 (Homo sapiens, UniProt Q9BUB5, T385D) (assay: MKNK1 kinase high ATP assay (TR-FRET-based)). Settings: Table 2a; 2 mM ATP, 15 min preincubation.
T1 construct: GST (N); purchased Carna Biosciences 02-145; host or cells: insect cells (baculovirus expression system)
Format: biochemical
Method: MKNK1 Kinase High ATP Assay
MKNK1-inhibitory activity at high ATP of compounds of the present invention after their preincubation with MKNK1 was quantified employing the TR-FRET-based MKNK1 high ATP assay as described in the following paragraphs.
A recombinant fusion protein of Glutathione-S-Transferase (GST, N-terminally) and human full-length MKNK1 (amino acids 1-424 and T344D of accession number BAA 19885.1), expressed in insect cells using baculovirus expression system and purified via glutathione sepharose affinity chromatography, was purchased from Carna Biosciences (product no 02-145) and used as enzyme. As substrate for the kinase reaction the biotinylated peptide biotin-Ahx-IKKRKLTRRKSLKG (C-terminus in amide form) was used, which can be purchased e.g. from the company Biosyntan (Berlin-Buch, Germany).
For the assay 50 nL of a 100 fold concentrated solution of the test compound in DMSO was pipetted into a black low volume 384 well microtiter plate (Greiner Bio-One, Frickenhausen, Germany), 2 μL of a solution of MKNK1 in aqueous assay buffer [50 mM HEPES pH 7.5, 5 mM magnesium chloride, 1.0 mM dithiothreitol, 0.005% (v/v) Nonidet-P40 (Sigma)] was added and the mixture was incubated for 15 min at 22° C. to allow pre-binding of the test compounds to the enzyme before the start of the kinase reaction. Then the kinase reaction was started by the addition of 3 μL of a solution of adenosine-tri-phosphate (ATP, 3.3 mM=>final conc. in the 5 μL assay volume is 2 mM) and substrate (0.1 μM=>final conc. in the 5 μL assay volume is 0.06 μM) in assay buffer and the resulting mixture was incubated for a reaction time of 30 min at 22° C. The concentration of MKNK1 was adjusted depending of the activity of the enzyme lot and was chosen appropriate to have the assay in the linear range, typical concentrations were in the range of 0.003 μg/mL. The reaction was stopped by the addition of 5 μL of a solution of TR-FRET detection reagents (5 nM streptavidine-XL665 [Cisbio Bioassays, Codolet, France] and 1 nM anti-ribosomal protein S6 (pSer236)-antibody from Invitrogen [#44921G] and 1 nM LANCE EU-W1024 labeled ProteinG [Perkin-Elmer, product no. AD0071]) in an aqueous EDTA-solution (100 mM EDTA, 0.1% (w/v) bovine serum albumin in 50 mM HEPES pH 7.5).
The resulting mixture was incubated for 1 h at 22° C. to allow the formation of complex between the phosphorylated biotinylated peptide and the detection reagents. Subsequently the amount of phosphorylated substrate was evaluated by measurement of the resonance energy transfer from the Eu-chelate to the streptavidine-XL. Therefore, the fluorescence emissions at 620 nm and 665 nm after excitation at 350 nm were measured in a TR-FRET reader, e.g. a Rubystar (BMG Labtechnologies, Offenburg, Germany) or a Viewlux (Perkin-Elmer). The ratio of the emissions at 665 nm and at […] was taken as the measure for the amount of phosphorylated substrate. The data were normalised (enzyme reaction without inhibitor=0% inhibition, all other assay components but no enzyme=100% inhibition).

T1 sequence (Q9BUB5 1-424 isoform Q9BUB5-2 T344D): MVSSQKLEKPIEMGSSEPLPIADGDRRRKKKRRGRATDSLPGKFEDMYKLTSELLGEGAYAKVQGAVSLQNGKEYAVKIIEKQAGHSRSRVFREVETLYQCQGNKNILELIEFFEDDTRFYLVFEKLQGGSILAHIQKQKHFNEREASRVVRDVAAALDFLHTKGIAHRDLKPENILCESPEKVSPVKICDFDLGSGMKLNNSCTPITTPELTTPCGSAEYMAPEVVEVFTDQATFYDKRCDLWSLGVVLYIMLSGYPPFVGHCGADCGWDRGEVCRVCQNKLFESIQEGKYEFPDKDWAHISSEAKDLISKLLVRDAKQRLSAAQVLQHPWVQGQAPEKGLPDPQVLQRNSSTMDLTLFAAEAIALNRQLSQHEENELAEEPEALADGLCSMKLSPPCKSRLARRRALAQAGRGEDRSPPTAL

| IC50 [nM] | Compound |
| --- | --- |
| 4.8 | CC(C)(C)C(=O)N1CCC[C@H]1CCOc1ccc2ncc(-c3cc4ccccc4o3)n2n1 [Example I-3, 1-[(2S)-2-(2-{[3-(1-Benzofuran-2-yl)imidazo[1,2-b]pyridazin-6-yl]oxy}ethyl)-pyrrolidin-1-yl]-2,2-dimethylpropan-1-one] |
| 7 | COc1cccc2oc(-c3cnc4ccc(OC[C@H]5CN(C(=O)C6CC6)CCO5)nn34)cc12 [Example I-41, Cyclopropyl[(2R)-2-({[3-(4-methoxy-1-benzofuran-2-yl)imidazo[1,2-b]pyridazin-6-yl]oxy}methyl)morpholin-4-yl]methanone] |

Same assay, conditions: Table 2b; 2 mM ATP, 15 min preincubation

| Compound | IC50 [nM] |
| --- | --- |
| C[C@H]1CN(c2cccc3oc(-c4cnc5ccc(OCCCS(C)(=O)=O)nn45)cc23)CCN1 [II-52, 3-{4-[(3S)-3-methylpiperazin-1-yl]-1-benzofuran-2-yl}-6-[3-(methylsulfonyl)pro-poxy]imidazo[1,2-b]pyri-dazine] | 7.1 |
| COc1ccc2ncc(-c3cc4c(N5CCNC(C)(C)C5)cccc4o3)n2n1 [II-60, 3-[4-(3,3-dimethylpiperazin-1-yl)-1-benzofuran-2-yl]-6-methoxy-imidazo[1,2-b]pyridazine] | 0.3 |

The remaining lines, values ahead:

| IC50 [nM] | Compound |
| --- | --- |
| 4.4 | COc1ccc2ncc(-c3cc4c(N5CCN[C@@H](C)C5)cccc4o3)n2n1 [II-40, 6-methoxy-3-{4-[(3S)-3-methylpiperazin-1-yl]-1-benzofuran-2-yl}imidazo[1,2-b]pyridazine] |
| 5.5 | C[C@H]1CN(c2cccc3oc(-c4cnc5ccc(OCC(F)(F)F)nn45)cc23)CCN1 [II-41, 3-{4-[(3S)-3-methylpiperazin-1-yl]-1-benzofuran-2-yl}-6-(2,2,2-trifluoroethoxy)im-idazo[1,2-b]pyridazine] |
| 5.8 | C[C@H]1CN(c2cccc3oc(-c4cnc5ccc(OC[C@@H]6CCC(=O)N6)nn45)cc23)CCN1 [II-42, (5S)-5-{[(3-{4-[(3S)-3-methylpiperazin-1-yl]-1-benzofuran-2-yl}imidazo[1,2-b]pyridazin-6-yl)oxy]methyl}pyrrolidin-2-one] |

Same assay, conditions: Table 2c; 2 mM ATP, 15 min preincubation

| Compound | IC50 [nM] |
| --- | --- |
| C[C@@H](N)COc1ccc2ncc(-c3cc4c(N5CCOC[C@@H]5C)nccc4o3)n2n1 [III-5, (2R)-1-[(3-{4-[(3S)-3-Methylmorpholin-4-yl]furo[3,2-c]pyridin-2-yl}imidazo-[1,2-b]pyridazin-6-yl)oxy]propan-2-amine] | 10.1 |
| C[C@@H](N)COc1ccc2ncc(-c3cc4c(N5CCO[C@@H](C)C5)nccc4o3)n2n1 [III-6, (2R)-1-[(3-{4-[(2S)-2-Methylmorpholin-4-yl]furo[3,2-c]pyridin-2-yl}imidazo-[1,2-b]pyridazin-6-yl)oxy]propan-2-amine] | 8.8 |
| C[C@H](N)COc1ccc2ncc(-c3cc4c(N5CCOC[C@@H]5C)nccc4o3)n2n1 [III-28, (2S)-1-[(3-{4-[(3S)-3-Methylmorpholin-4-yl]furo[3,2-c]pyridin-2-yl}imidazo-[1,2-b]pyridazin-6-yl)oxy]propan-2-amine] | 9.4 |
| C[C@H]1COCCN1c1nccc2oc(-c3cnc4ccc(OCCCS(C)(=O)=O)nn34)cc12 [III-59, 3-{4-[(3S)-3-Methylmorpholin-4-yl]furo[3,2-c]pyridin-2-yl}-6-[3-(methyl-sulfonyl)propoxy]imidazo[1,2-b]pyridazine] | 4.9 |
| C[C@H]1CN(c2nccc3oc(-c4cnc5ccc(OCCCS(C)(=O)=O)nn45)cc23)CCO1 [III-60, 3-{4-[(2S)-2-Methylmorpholin-4-yl]furo[3,2-c]pyridin-2-yl}-6-[3-(methyl-sulfonyl)propoxy]imidazo[1,2-b]pyridazine] | 2.8 |
| COc1ccc2ncc(-c3cc4c(N5CCOC[C@H]5C)nccc4o3)n2n1 [III-92, 6-Methoxy-3-{4-[(3R)-3-methylmorpholin-4-yl]furo[3,2-c]pyridin-2-yl}imidazo[1,2-b]pyridazine] | 3.2 |
| COc1ccc2ncc(-c3cc4c(N5CCOC[C@@H]5C)nccc4o3)n2n1 [III-93, 6-Methoxy-3-{4-[(3S)-3-methylmorpholin-4-yl]furo[3,2-c]pyridin-2-yl}imidazo[1,2-b]pyridazine] | 5.6 |
| C[C@H]1COCCN1c1nccc2oc(-c3cnc4ccc(O[C@H]5C[C@H](N)C5)nn34)cc12 [III-109, trans-3-[(3-{4-[(3S)-3-Methylmorpholin-4-yl]furo[3,2-c]pyridin-2-yl}imidazo[1,2-b]pyridazin-6-yl)oxy]cyclobutanamine] | 5.2 |
| C[C@@H]1CN(c2nccc3oc(-c4cnc5ccc(OCC(F)(F)F)nn45)cc23)CCN1 [III-127, 3-{4-[(3R)-3-methylpiperazin-1-yl]furo[3,2-c]pyridin-2-yl}-6-(2,2,2-trifluoroethoxy)imidazo [1,2-b]pyridazine] | 4.2 |

The next lines start with the values.

| IC50 [nM] | Compound |
| --- | --- |
| 4.8 | C[C@H](N)COc1ccc2ncc(-c3cc4c(N5CCO[C@@H](C)C5)nccc4o3)n2n1 [III-29, (2S)-1-[(3-{4-[(2S)-2-Methylmorpholin-4-yl]furo[3,2-c]pyridin-2-yl}imidazo-[1,2-b]pyridazin-6-yl)oxy]propan-2-amine] |
| 0.7 | C[C@@H]1COCCN1c1nccc2oc(-c3cnc4ccc(OC[C@H]5CCC(=O)N5)nn34)cc12 [III-79, (5R)-5-{[(3-{4-[(3R)-3-Methylmorpholin-4-yl]furo[3,2-c]pyridin-2-yl}imidazo[1,2-b]pyridazin-6-yl)oxy]methyl}pyrrolidin-2-one] |
| 0.5 | C[C@H]1COCCN1c1nccc2oc(-c3cnc4ccc(OC[C@H]5CCC(=O)N5)nn34)cc12 [III-84, (5R)-5-{[(3-{4-[(3S)-3-Methylmorpholin-4-yl]furo[3,2-c]pyridin-2-yl}imidazo[1,2-b]pyridazin-6-yl)oxy]methyl}pyrrolidin-2-one] |
| 3.7 | C[C@H]1COCCN1c1nccc2oc(-c3cnc4ccc(OC[C@@H]5CCC(=O)N5)nn34)cc12 [III-87, (5S)-5-{[(3-{4-[(3S)-3-Methylmorpholin-4-yl]furo[3,2-c]pyridin-2-yl}imidazo-[1,2-b]pyridazin-6-yl)oxy]methyl}pyrrolidin-2-one] |
| 4.2 | C[C@H]1CN(c2nccc3oc(-c4cnc5ccc(OC[C@@H]6CCC(=O)N6)nn45)cc23)CCO1 [III-88, (5S)-5-{[(3-{4-[(2S)-2-Methylmorpholin-4-yl]furo[3,2-c]pyridin-2-yl}imidazo-[1,2-b]pyridazin-6-yl)oxy]methyl}pyrrolidin-2-one] |
| 4 | COc1ccc2ncc(-c3cc4c(N5CCO[C@@H](C)C5)nccc4o3)n2n1 [III-94, 6-Methoxy-3-{4-[(2S)-2-methylmorpholin-4-yl]furo[3,2-c]pyridin-2-yl}imidazo[1,2-b]pyridazine] |
| 10.4 | C[C@H]1CN(c2nccc3oc(-c4cnc5ccc(O[C@H]6C[C@H](N)C6)nn45)cc23)CCO1 [III-110, trans-3-[(3-{4-[(2S)-2-Methylmorpholin-4-yl]furo[3,2-c]pyridin-2-yl}imidazo[1,2-b]pyridazin-6-yl)oxy]cyclobutanamine] |

Same assay, conditions: Table 2d; 2 mM ATP, 15 min preincubation

| IC50 [nM] | Compound |
| --- | --- |
| 7 | O=C1CC[C@H](COc2ccc3ncc(-c4cc5c(OCC6CC6)nccc5o4)n3n2)N1 [IV-12, (5R)-5-[({3-[4-(Cyclopropylmethoxy)furo[3,2-c]pyridin-2-yl]imidazo[1,2-b]-pyridazin-6-yl}oxy)methyl]pyrrolidin-2-one] |
